Active and inactive are the calls of the source. No cut-off for these calls is given here.
Experiments:
[1] = biological target: T1, Acetylcholinesterase (Homo sapiens, UniProt P22303); assay: Inhibition of human serum BChE using butyrylthiocholine iodide as substrate by spectrophotometric method
[2] = biological target: Acetylcholinesterase (Electrophorus electricus) (UniProt O42275)
Description: (§1) Inhibition of electric eel AChE using acetylthiocholine iodide as substrate by spectrophotometric method

[3] = biological target: T1, Acetylcholinesterase
Description: (§2) Inhibition of human recombinant AChE using acetylthiocholine iodide as substrate by spectrophotometric method

[4] = biological target: Acetylcholinesterase (Electrophorus electricus, UniProt O42275)
Sequence of Acetylcholinesterase (Electrophorus electricus, UniProt O42275) (O42275 whole entry): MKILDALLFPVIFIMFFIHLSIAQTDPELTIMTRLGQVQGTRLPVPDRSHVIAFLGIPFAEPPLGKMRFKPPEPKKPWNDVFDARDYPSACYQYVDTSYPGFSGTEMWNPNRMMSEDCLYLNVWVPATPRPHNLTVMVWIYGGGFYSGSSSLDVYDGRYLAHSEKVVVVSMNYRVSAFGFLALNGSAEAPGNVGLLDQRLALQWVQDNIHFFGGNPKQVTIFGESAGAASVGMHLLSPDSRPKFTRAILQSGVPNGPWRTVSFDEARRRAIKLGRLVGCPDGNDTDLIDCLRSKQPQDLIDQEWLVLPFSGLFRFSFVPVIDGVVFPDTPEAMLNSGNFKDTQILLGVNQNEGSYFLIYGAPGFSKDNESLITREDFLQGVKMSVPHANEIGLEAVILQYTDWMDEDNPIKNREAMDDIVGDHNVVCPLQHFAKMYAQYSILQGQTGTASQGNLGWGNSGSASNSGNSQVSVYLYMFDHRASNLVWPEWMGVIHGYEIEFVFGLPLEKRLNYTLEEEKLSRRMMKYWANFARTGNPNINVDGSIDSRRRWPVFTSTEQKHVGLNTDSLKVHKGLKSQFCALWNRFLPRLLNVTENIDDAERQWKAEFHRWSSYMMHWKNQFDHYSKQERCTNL
Description: as §1

[5] = biological target: T1, Acetylcholinesterase; remark: listed apart in the source
Description: as §2

T1 sequence (P22303 whole entry): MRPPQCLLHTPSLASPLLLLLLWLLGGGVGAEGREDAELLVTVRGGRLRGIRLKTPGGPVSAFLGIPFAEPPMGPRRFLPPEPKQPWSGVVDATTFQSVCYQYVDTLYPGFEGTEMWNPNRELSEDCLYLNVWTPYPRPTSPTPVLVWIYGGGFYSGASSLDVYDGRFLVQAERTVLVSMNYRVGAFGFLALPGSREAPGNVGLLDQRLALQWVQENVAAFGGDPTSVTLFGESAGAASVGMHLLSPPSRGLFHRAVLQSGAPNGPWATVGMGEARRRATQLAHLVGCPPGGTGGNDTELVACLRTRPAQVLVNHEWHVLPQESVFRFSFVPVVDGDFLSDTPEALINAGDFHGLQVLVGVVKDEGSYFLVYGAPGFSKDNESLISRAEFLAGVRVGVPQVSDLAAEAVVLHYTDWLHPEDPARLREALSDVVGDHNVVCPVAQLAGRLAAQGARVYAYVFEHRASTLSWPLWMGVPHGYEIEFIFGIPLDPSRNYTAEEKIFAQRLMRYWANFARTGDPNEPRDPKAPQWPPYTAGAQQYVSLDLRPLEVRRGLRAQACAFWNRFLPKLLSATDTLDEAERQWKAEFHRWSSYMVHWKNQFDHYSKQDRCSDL
Sequence of Acetylcholinesterase (Electrophorus electricus) (O42275 24-633 limits assumed): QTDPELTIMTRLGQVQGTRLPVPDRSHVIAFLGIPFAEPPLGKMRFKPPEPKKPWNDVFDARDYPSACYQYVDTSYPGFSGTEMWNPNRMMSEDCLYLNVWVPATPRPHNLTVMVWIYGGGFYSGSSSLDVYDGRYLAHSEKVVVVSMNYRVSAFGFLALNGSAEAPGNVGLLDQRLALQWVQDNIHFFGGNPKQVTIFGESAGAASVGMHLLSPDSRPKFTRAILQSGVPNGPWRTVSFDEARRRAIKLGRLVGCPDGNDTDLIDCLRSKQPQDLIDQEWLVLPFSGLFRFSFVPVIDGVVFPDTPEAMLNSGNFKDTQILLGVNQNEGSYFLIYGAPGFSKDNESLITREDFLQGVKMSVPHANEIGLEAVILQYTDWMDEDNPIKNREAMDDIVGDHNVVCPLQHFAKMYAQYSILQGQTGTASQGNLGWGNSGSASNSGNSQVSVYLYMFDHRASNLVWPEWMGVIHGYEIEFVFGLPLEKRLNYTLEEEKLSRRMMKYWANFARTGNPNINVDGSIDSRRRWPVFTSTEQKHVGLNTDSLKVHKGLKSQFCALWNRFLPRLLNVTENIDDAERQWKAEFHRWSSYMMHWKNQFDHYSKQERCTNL

Row | Structure (SMILES) | inhibition [1] | inhibition [2] | inhibition [3] | IC50 [4] | IC50 [5]
1 | OCCCc1ccc2oc(-c3ccc4c(c3)OCO4)cc2c1 | inactive | inactive | inactive |  | 
2 | COc1cc(CCCOC(=O)NC(C)(C)C)cc2cc(-c3ccc4c(c3)OCO4)oc12 | inactive |  |  |  | 
3 | CCCC(=O)OCCCc1cc(OC)c2oc(-c3ccc4c(c3)OCO4)cc2c1 | inactive |  |  |  | 
4 | CCCCCCCC/C=C\CCCCCCCC(=O)OCCCc1ccc2oc(-c3ccc4c(c3)OCO4)cc2c1 | inactive |  |  | 2200 nM | 3100 nM
5 | CC(=O)OCCCc1ccc2oc(-c3ccc4c(c3)OCO4)cc2c1 | inactive | inactive | inactive |  | 
6 | CC[C@H](C)C(=O)OCCCc1cc(OC)c2oc(-c3ccc4c(c3)OCO4)cc2c1 | inactive |  |  | 4800 nM | 5900 nM
7 | CC[C@H](C)C(=O)OCCCc1ccc2oc(-c3ccc4c(c3)OCO4)cc2c1 | inactive |  |  | 5500 nM | 6100 nM
8 | CCC(=O)OCCCc1cc(OC)c2oc(-c3ccc4c(c3)OCO4)cc2c1 | inactive | inactive | inactive |  | 
9 | COc1cc(CCCOC(=O)Nc2ccccc2)cc2cc(-c3ccc4c(c3)OCO4)oc12 | inactive |  |  | 3300 nM | 4500 nM
10 | COc1cc(CCC=O)cc2cc(-c3ccc4c(c3)OCO4)oc12 | inactive | inactive | inactive |  | 
11 | CCCCC/C=C\C/C=C\CCCCCCCC(=O)OCCCc1ccc2oc(-c3ccc4c(c3)OCO4)cc2c1 | inactive |  |  | 2000 nM | 2700 nM
12 | COc1cc(CCCOC(C)=O)cc2cc(-c3ccc4c(c3)OCO4)oc12 | inactive | inactive | inactive |  | 
13 | COc1cc(CCCO)cc2cc(-c3ccc4c(c3)OCO4)oc12 | inactive | inactive | inactive |  | 
14 | CCCCCCCC/C=C\CCCCCCCC(=O)OCCCc1cc(OC)c2oc(-c3ccc4c(c3)OCO4)cc2c1 [EGONOL OLEATE] | inactive |  |  | 1400 nM | 1800 nM
15 | COc1cc(CCC(=O)O)cc2cc(-c3ccc4c(c3)OCO4)oc12 | inactive | inactive | inactive |  | 
16 | COc1cc(CCCOC(=O)CCCCCCCC=O)cc2cc(-c3ccc4c(c3)OCO4)oc12 | inactive |  | inactive |  | 
17 | CCCCC/C=C\C/C=C\CCCCCCCC(=O)OCCCc1cc(OC)c2oc(-c3ccc4c(c3)OCO4)cc2c1 | inactive |  |  | 1400 nM | 1700 nM
18 | COc1cc(CCCOC(=O)C(C)C)cc2cc(-c3ccc4c(c3)OCO4)oc12 | inactive |  |  |  | 
19 | O=CCCCCCCCC(=O)OCCCc1ccc2oc(-c3ccc4c(c3)OCO4)cc2c1 | inactive |  | inactive |  | 
